Our source for the melting point values is patent publication US20080153850A1, “Adamantyl Derivates as P2x7 Receptor Antagonists” (AstraZeneca AB, priority 2004, published 2008).

Structures can show the parent of a compound that is named as a salt.

In the case of `Cc1ccc(-c2cccc(C(=O)O)n2)cc1C(=O)NCC12CC3CC(CC(C3)C1)C2` [Example 69, 6-[4-Methyl-3-[[(tricyclo[3.3.1.1^3,7]dec-1-ylmethyl)amino]carbonyl]phenyl]-2-pyridinecarboxylic acid], the melting point is 227 °C.

Consider `Cc1ccc(-c2ccc(Cl)c(C(=O)NCC34CC5CC(CC(C5)C3)C4)c2)c(C(=O)O)c1` [Example 24, 4′-Chloro-4-methyl-3′-[[(tricyclo[3.3.1.1^3,7]dec-1-ylmethyl)amino]carbonyl]-[1,1′-biphenyl]-2-carboxylic acid], for which the melting point is 214 to 216 °C.

Molecule `C[C@H](Oc1ccccc1-c1ccc(Cl)c(C(=O)NCC23CC4CC(CC(C4)C2)C3)c1)C(=O)O` [Example 14, (2S)-2-[[4′-chloro-3′-[[(tricyclo[3.3.1.1^3,7]dec-1-ylmethyl)amino]carbonyl][1,1′-biphenyl]-2-yl]oxy]-propanoic acid] came in with a melting point of 107 to 110 °C.

For the molecule `O=C(O)c1coc(-c2ccc(Cl)c(C(=O)NCC34CC5CC(CC(C5)C3)C4)c2)n1` [Example 23, 2-[4-Chloro-3-[[(tricyclo[3.3.1.1^3,7]dec-1-ylmethyl)amino]carbonyl]phenyl]-4-oxazolecarboxylic acid], the melting point is 254 to 257 °C.

As to `O=C(NCC12CC3CC(CC(C3)C1)C2)c1cc(-c2cccnc2N2CCC(O)(C(=O)O)CC2)ccc1Cl` [Example 65, 1-[3-[4-Chloro-3-[[(tricyclo[3.3.1.1^3,7]dec-1-ylmethyl)amino]carbonyl]phenyl]-2-pyridinyl]-4-hydroxy-4-piperidinecarboxylic acid], the melting point was in the range of 145 to 150 °C.

Take `Cc1ccc(C(=O)O)c(-c2ccc(Cl)c(C(=O)NCC34CC5CC(CC(C5)C3)C4)c2)n1` [Example 13, 2-[4-Chloro-3-[[(tricyclo[3.3.1.1^3,7]dec-1-ylmethyl)amino]carbonyl]phenyl]-6-methyl-3-pyridinecarboxylic acid]: the melting point was 209 to 211 °C.

With `O=C(NCC12CC3CC(CC(C3)C1)C2)c1cc(-c2ccsc2C(=O)O)ccc1Cl` [Example 19, 3-[4-Chloro-3-[[(tricyclo[3.3.1.1^3,7]dec-1-ylmethyl)amino]carbonyl]phenyl]-2-thiophenecarboxylic acid], the melting point is 140 to 143 °C.

For `Cc1ccc(-c2cccnc2N2CCC(C(=O)O)CC2)cc1C(=O)NCC12CC3CC(CC(C3)C1)C2` [Example 68, 1-[3-[4-Methyl-3-[[(tricyclo[3.3.1.1^3,7]dec-1-ylmethyl)amino]carbonyl]phenyl]-2-pyridinyl]-4-piperidinecarboxylic acid], the melting point turned out to be 60 °C.

For `O=C(NCCC12CC3CC(CC(C3)C1)C2)c1cc(-c2ccccc2C(=O)O)ccc1Cl` [Example 49, 4′-Chloro-3′-[[(2-tricyclo[3.3.1.1^3,7]dec-1-ylethyl)amino]carbonyl]-[1,1′-biphenyl]-2-carboxylic acid], the melting point fell in the range of 114 to 117 °C.

For the molecule `Cc1ccc(-c2ccc(Cl)c(C(=O)NCC34CC5CC(CC(C5)C3)C4)c2)c(C(=O)O)n1` [Example 63, 3-[4-Chloro-3-[[(tricyclo[3.3.1.1^3,7]dec-1-ylmethyl)amino]carbonyl]phenyl]-6-methyl-2-pyridinecarboxylic acid], the melting point is 125 to 130 °C.

Take `CN(CCO)c1nc(-c2ccc(Cl)c(C(=O)NCC34CC5CC(CC(C5)C3)C4)c2)ccc1C(=O)O` [Example 54, 6-[4-Chloro-3-[[(tricyclo[3.3.1.1^3,7]dec-1-ylmethyl)amino]carbonyl]phenyl]-2-[(2-hydroxyethyl)methylamino]-3-pyridinecarboxylic acid]: the melting point lay within 121 to 124 °C.

In turn, `Cc1ccnc(-c2ccc(Cl)c(C(=O)NCC34CC5CC(CC(C5)C3)C4)c2)c1C(=O)O` [Example 53, 2-[4-Chloro-3-[[(tricyclo[3.3.1.1^3,7]dec-1-ylmethyl)amino]carbonyl]phenyl]-4-methyl-3-pyridinecarboxylic acid] registered a melting point of 177 to 180 °C.

`O=C(O)COc1cccnc1-c1ccc(Cl)c(C(=O)NCC23CC4CC(CC(C4)C2)C3)c1` [Example 46, [[2-[4-Chloro-3-[[(tricyclo[3.3.1.1^3,7]dec-1-ylmethyl)amino]carbonyl]phenyl]-3-pyridinyl]oxy]-acetic acid]: the melting point is 133 to 137 °C.

In turn, `O=C(O)COc1ncccc1-c1ccc(Cl)c(C(=O)NCC23CC4CC(CC(C4)C2)C3)c1` [Example 28, [[3-[4-Chloro-3-[[(tricyclo[3.3.1.1^3,7]dec-1-ylmethyl)amino]carbonyl]phenyl]-2-pyridinyl]oxy]-acetic acid] gave a melting point of 226 to 229 °C.

`O=C(NCC12CC3CC(CC(C3)C1)C2)c1cc(-c2ncccc2C(=O)O)ccc1Cl` [Example 10, 2-[4-Chloro-3-[[(tricyclo[3.3.1.1^3,7]dec-1-ylmethyl)amino]carbonyl]phenyl]-3-pyridinecarboxylic acid] registered a melting point of 169 to 172 °C.

For `O=C(NCC12CC3CC(CC(C3)C1)C2)c1cc(-c2nccnc2C(=O)O)ccc1Cl` (as salt: sodium) [Example 6, 3-[4-Chloro-3-[[(tricyclo[3.3.1.1^3,7]dec-1-ylmethyl)amino]carbonyl]phenyl]-2-pyrazinecarboxylic acid, monosodium salt], the melting point is 194 to 195 °C (dec.).

On to `COc1ccc(-c2ccc(Cl)c(C(=O)NCC34CC5CC(CC(C5)C3)C4)c2)c(C(=O)O)c1` [Example 30, 4′-Chloro-4-methoxy-3′-[[(tricyclo[3.3.1.1^3,7]dec-1-ylmethyl)amino]carbonyl]-[1,1′-biphenyl]-2-carboxylic acid], for which the melting point was in the range of 219 to 221 °C.

Take `O=C(NCC12CC3CC(CC(C3)C1)C2)c1cc(-c2ccccc2C(=O)O)ncc1Cl` [Example 52, 2-[5-Chloro-4-[[(tricyclo[3.3.1.1^3,7]dec-1-ylmethyl)amino]carbonyl]-2-pyridinyl]-benzoic acid]: the melting point lay in the range of 134 to 138 °C.

As for `N#CNc1cncc(-c2ccc(Cl)c(C(=O)NCC34CC5CC(CC(C5)C3)C4)c2)n1` [Example 4, 2-Chloro-5-[6-(cyanoamino)pyrazinyl]-N-(tricyclo[3.3.1.1^3,7]dec-1-ylmethyl)-benzamide], the melting point is 215 to 220 °C (dec.).

Take `O=C(NCC12CC3CC(CC(C3)C1)C2)c1cc(-c2ccc(Cl)cc2C(=O)O)ccc1Cl` [Example 42, 4,4′-Dichloro-3′-[[(tricyclo[3.3.1.1^3,7]dec-1-ylmethyl)amino]carbonyl]-[1,1′-biphenyl]-2-carboxylic acid]: the melting point lay in the range of 207 to 210 °C.

As to `O=C(NCC12CC3CC(CC(C3)C1)C2)c1cc(-c2cccnc2N2CCC(C(=O)O)CC2)ccc1Cl` [Example 59, 1-[3-[4-Chloro-3-[[(tricyclo[3.3.1.1^3,7]dec-1-ylmethyl)amino]carbonyl]phenyl]-2-pyridinyl]-4-piperidinecarboxylic acid], the melting point lay within 110 to 115 °C.

`CS(=O)(=O)NC(=O)c1cccc(-c2ccc(Cl)c(C(=O)NCC34CC5CC(CC(C5)C3)C4)c2)n1` [Example 25, 6-[4-Chloro-3-[[(tricyclo[3.3.1.1^3,7]dec-1-ylmethyl)amino]carbonyl]phenyl]-N-(methylsulfonyl)-2-pyridinecarboxamide] came in with a melting point of 160 to 162 °C.

As to `Cn1cc(-c2ccc(Cl)c(C(=O)NCC34CC5CC(CC(C5)C3)C4)c2)c(C(=O)O)n1` [Example 31, 4-[4-Chloro-3-[[(tricyclo[3.3.1.1^3,7]dec-1-ylmethyl)amino]carbonyl]phenyl]-1-methyl-1H-pyrazole-3-carboxylic acid], the melting point was 166 to 175 °C (dec.).

Take `CS(=O)(=O)Nc1nccnc1-c1ccc(Cl)c(C(=O)NCC23CC4CC(CC(C4)C2)C3)c1` [Example 8, 2-Chloro-5-[3-[(methylsulfonyl)amino)pyrazinyl]-N-(tricyclo[3.3.1.1^3,7]dec-1-ylmethyl)-benzamide]: the melting point was 245 °C (dec.).

With `O=C(NCC12CC3CC(CC(C3)C1)C2)c1cc(-c2ccc(F)cc2C(=O)O)ccc1Cl` [Example 51, 4′-Chloro-4-fluoro-3′-[[(tricyclo[3.3.1.1^3,7]dec-1-ylmethyl)amino]carbonyl]-[1,1′-biphenyl]-2-carboxylic acid], the melting point is 126 to 128 °C.

Molecule `Cc1ccc(-c2cccnc2C(=O)O)cc1C(=O)NCC12CC3CC(CC(C3)C1)C2` [Example 55, 3-[4-Methyl-3-[[(tricyclo[3.3.1.1^3,7]dec-1-ylmethyl)amino]carbonyl]phenyl]-2-pyridinecarboxylic acid] yielded a melting point of 181 to 183 °C.

As to `O=C(NCC12CC3CC(CC(C3)C1)C2)c1cc(-c2ccncc2C(=O)O)ccc1Cl` [Example 70, 4-[4-Chloro-3-[[(tricyclo[3.3.1.1^3,7]dec-1-ylmethyl)amino]carbonyl]phenyl]-3-pyridinecarboxylic acid], the melting point was in the range of 104 to 107 °C.

Molecule `O=C(NCC12CC3CC(CC(C3)C1)C2)c1cc(-c2c(F)cccc2C(=O)O)ccc1Cl` [Example 35, 4′-Chloro-6-fluoro-3′-[[(tricyclo[3.3.1.1^3,7]dec-1-ylmethyl)amino]carbonyl]-[1,1′-biphenyl]-2-carboxylic acid] yielded a melting point of 108 to 113 °C.

`O=C(O)c1cccc(-c2ccc(Cl)c(C(=O)NCC34CC5CC(CC(C5)C3)C4)c2)n1` [Example 20, 6-[4-Chloro-3-[[(tricyclo[3.3.1.1^3,7]dec-1-ylmethyl)amino]carbonyl]phenyl]-2-pyridinecarboxylic acid] had a melting point of 170 to 173 °C.

`O=C(NCC12CC3CC(CC(C3)C1)C2)c1cc(-c2cc(F)cnc2N2CCC(C(=O)O)CC2)ccc1Cl` [Example 66, 1-[3-[4-Chloro-3-[[(tricyclo[3.3.1.1^3,7]dec-1-ylmethyl)amino]carbonyl]phenyl]-5-fluoro-2-pyridinyl]-4-piperidinecarboxylic acid]: the melting point was 130 to 135 °C.

Molecule `C[C@H](Oc1ccc(-c2ccc(Cl)c(C(=O)NCC34CC5CC(CC(C5)C3)C4)c2)cc1)C(=O)O` [Example 43, (2S)-2-[[4′-Chloro-3′-[[(tricyclo[3.3.1.1^3,7]dec-1-ylmethyl)amino]carbonyl][1,1′-biphenyl]-4-yl]oxy]-propanoic acid] showed a melting point of 145 to 150 °C.

One may read the melting point as the temperature, or range, at which the solid turns liquid.
